Measurements taken from patent US4736058A, “Prostacyclins and process for production thereof” (Teijin Limited, priority 1983, dated 1988).
Converted amounts (≈) assume the structure as drawn. Where two headings read alike, the source gives them in different places.

Tests used:
[1] = background; natural prostacyclin under neutral or acidic conditions; cited from earlier work
[2] = background; cited from earlier work
[3] = tested on: platelet aggregation (rabbit platelet-rich plasma, ADP); assay: in vitro inhibition of ADP-induced platelet aggregation; type: cell-based, rabbit (Japanese domestic white male); conditions: Oryctolagus cuniculus
Procedure: (i) Measurement of in vitro inhibitory activity of platelet aggregation
The in vitro platelet aggregation inhibiting activities of 9(0)-methano-Δ^6(9) -prostaglandin I, obtained in Example 3 was examined by using rabbits. Blood was withdrawn from the ear vein of Japanese domestic white male rabbits weighing 2.5 to 3.5 kg. A mixture of a 3.8% trisodium citrate solution and the blood in a ratio of 1:9 was centrifuged at a speed of 1000 rpm for 10 minutes. The upper layer was separated as platelet-rich plasma (PRP). The lower layer was further centrifuged at a speed of […] for 10 minutes. The upper layer was separated as platelet-poor plasma (PPP). The number of platelets was adjusted to 6×10^5 /μl to 7×10^5 /μl by diluting the PRP with PPP. 25 microliters of the test compound prepared as shown below was added in an amount of 250 microliters of PRP after the adjustment, and the mixture was pre-incubated at 37° C. for 2 minutes, and then 10 μM (final) of ADP was added. By using an aggregometer, changes in transmission were recorded.
The test compound was dissolved in ethanol to a concentration of 10 mg/ml. When its activity was measured, it was used after being diluted with phosphate buffer (pH 7.4).
The rate of inhibition of platelet aggregation was determined from the following equation. [formula] To : the transmittance of the system containing the phosphate buffer, T: the transmittance of the system to which the test compound was added.
The minimum concentration of the compound which inhibited more than 50% of platelet aggregation was shown as an IC50 value.

[4] = hypotensive activity, intravenous injection in anesthetized rats: blood pressure; type: in vivo, rat (male wister); conditions: rat, i.v., dosage causing a 20% lowering of mean blood pressure
Procedure: (§1) (ii) Measurement of the hypotensive activity
(§2) The actions of the 9(0)-methano-Δ^6(9) -prostaglandin 1, obtained in Example 3 on the blood pressure and heart rate of rats were examined by intravenous injection under anesthesia.
(§3) Male wister rats weighing about 250 g were used. Urethane (500 mg/kg) and α-chloralose (100 mg/kg) were intraperitoneally administered to the rats. The rats were anesthetized and fixed place.
(§4) The test compound was dissolved in a small amount of ethanol and diluted with 0.05M Tris buffer saline (pH 9) to adjust the final ethanol concentration to not more than 5%. The solution was intravenously injected into the rats through a cathether inserted into the femoral vein.
(§5) The blood pressure of the rats was measured by a pressure transducer through a cathether inserted into the carotid artery of the rats. The heart rate was determined from the blood pressure pulse.
(§6) The action of the test compound on the blood pressure was expressed as the dosage (ED20, μg/kg) of the test compound which caused a 20% lowering of the mean blood pressure before administration of the compound. The action of the test compound on the heart rate was expressed as the dosage (ED10, μg/kg) of the test compound which caused a 10% increase of the heart rate from the heart rate before administration of the test compound.

[5] = heart rate, intravenous injection in anesthetized rats; type: in vivo, rat (male wister); conditions: rat, i.v., dosage causing a 10% increase of heart rate
Procedure: as §1, §2, §3, §4, §5, §6

[6] = tested on: epithelial cells of rabbits; assay: cell protecting action against cell lethal action at pH 3; type: cell-based, rabbit; conditions: 10^-6 M
[7] = rabbit PRP, 10 μM ADP, minimum concentration which inhibited more than 50% of platelet aggregation, read-out: platelet aggregation inhibiting activity IC50

| SMILES | chemical stability, in words [1] | action-selectivity, in words [2] | biological activity relative to natural prostacyclin, in words [2] | IC50 ([3]; Platelet, rabbits, induced by ADP, read-out: inhibition of platelet aggregation IC50) | IC50 [3, 7] | ED20 [4] | increase of heart rate ED10 [5] | cell protecting action [6] |
| --- | --- | --- | --- | --- | --- | --- | --- | --- |
| CCCCC[C@H](O)/C=C/[C@@H]1[C@H]2C/C(=C\CCCC(=O)O)C[C@H]2C[C@H]1O [6,9-(0)-methanoprostacyclin] | able to satisfy the chemical stableness to perfection | not enough specific in action-selectivity | inferior to natural prostacyclin in biological activity |  |  |  |  |  |
| CCCCC[C@H](O)/C=C/[C@@H]1[C@H]2CC(CCCCC(=O)O)=C[C@H]2C[C@H]1O [9(0)-methano-Δ^6(9) -prostaglandin I1] |  |  |  | 5.4 ng/mL (≈ 0.0154 µM) | 5.4 ng/mL (≈ 0.0154 µM) | 1.7 µg/kg | > 30 µg/kg | has a cell protecting action |
| CCCCC[C@H](O)/C=C/[C@@H]1[C@H]2C/C(=C/CCCC(=O)O)O[C@H]2C[C@H]1O [PGI2] | apt to be appreciably hydrolyzed |  |  |  | 1.6 ng/mL (≈ 0.00454 µM) | 0.068 µg/kg | > 10 µg/kg |  |
